Test results reported in patent publication US20140322278A1, “Modulation of Tissue Transglutaminase Activation in Disease” (The Board of Trustees of the Leland Stanford Junior …, priority 2011, published 2014).
Entries after “also recorded” stand apart in the source; their conditions may differ.

What was measured:
human thioredoxin = biological target: T1, human thioredoxin (Homo sapiens, UniProt P10599); experiment: Inhibition of human thioredoxin by disulfide analogs of PX-12 (kinh/Ki); format: biochemical; conditions: for Trx kinh/Ki: human thioredoxin, bimolecular parameter estimating potency; for Trx/DTT: ratio of reactivity towards Trx relative to DTT (selectivity)
T1 construct: made in house; host or cells: E. coli
T1 sequence (P10599 1-105): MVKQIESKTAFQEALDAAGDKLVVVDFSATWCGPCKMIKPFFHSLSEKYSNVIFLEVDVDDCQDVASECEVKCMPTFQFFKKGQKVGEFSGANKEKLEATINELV

[1] = Reactivity of disulfide inhibitors towards dithiothreitol
human TG2 = biological target: T2, human TG2 (Homo sapiens, UniProt P21980); experiment: TG2 inhibition kinetics (kinh/Ki); format: biochemical
T2 sequence (P21980 1-687): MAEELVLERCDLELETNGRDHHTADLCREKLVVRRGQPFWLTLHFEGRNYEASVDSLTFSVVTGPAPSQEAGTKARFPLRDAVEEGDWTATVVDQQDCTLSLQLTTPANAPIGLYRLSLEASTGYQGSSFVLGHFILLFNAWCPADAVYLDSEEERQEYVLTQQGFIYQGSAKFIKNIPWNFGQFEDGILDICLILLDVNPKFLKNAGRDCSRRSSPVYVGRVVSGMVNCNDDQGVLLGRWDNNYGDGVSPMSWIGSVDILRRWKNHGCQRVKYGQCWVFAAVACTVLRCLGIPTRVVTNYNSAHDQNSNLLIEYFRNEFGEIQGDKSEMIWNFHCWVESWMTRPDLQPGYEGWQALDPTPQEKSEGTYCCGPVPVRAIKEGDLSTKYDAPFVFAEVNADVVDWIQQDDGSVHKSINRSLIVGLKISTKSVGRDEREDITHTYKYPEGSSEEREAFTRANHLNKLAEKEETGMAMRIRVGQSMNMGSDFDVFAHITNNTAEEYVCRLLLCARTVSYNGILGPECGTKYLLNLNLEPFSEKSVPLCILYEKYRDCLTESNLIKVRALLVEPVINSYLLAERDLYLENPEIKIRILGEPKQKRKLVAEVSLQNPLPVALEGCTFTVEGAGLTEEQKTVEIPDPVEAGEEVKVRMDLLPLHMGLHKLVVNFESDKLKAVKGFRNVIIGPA

[2] = biological target: T3, human transglutaminase 1 (TG1) (Homo sapiens, UniProt P22735); experiment: TG1 inhibition kinetics (kinh/Ki); format: biochemical
T3 sequence (P22735 1-817): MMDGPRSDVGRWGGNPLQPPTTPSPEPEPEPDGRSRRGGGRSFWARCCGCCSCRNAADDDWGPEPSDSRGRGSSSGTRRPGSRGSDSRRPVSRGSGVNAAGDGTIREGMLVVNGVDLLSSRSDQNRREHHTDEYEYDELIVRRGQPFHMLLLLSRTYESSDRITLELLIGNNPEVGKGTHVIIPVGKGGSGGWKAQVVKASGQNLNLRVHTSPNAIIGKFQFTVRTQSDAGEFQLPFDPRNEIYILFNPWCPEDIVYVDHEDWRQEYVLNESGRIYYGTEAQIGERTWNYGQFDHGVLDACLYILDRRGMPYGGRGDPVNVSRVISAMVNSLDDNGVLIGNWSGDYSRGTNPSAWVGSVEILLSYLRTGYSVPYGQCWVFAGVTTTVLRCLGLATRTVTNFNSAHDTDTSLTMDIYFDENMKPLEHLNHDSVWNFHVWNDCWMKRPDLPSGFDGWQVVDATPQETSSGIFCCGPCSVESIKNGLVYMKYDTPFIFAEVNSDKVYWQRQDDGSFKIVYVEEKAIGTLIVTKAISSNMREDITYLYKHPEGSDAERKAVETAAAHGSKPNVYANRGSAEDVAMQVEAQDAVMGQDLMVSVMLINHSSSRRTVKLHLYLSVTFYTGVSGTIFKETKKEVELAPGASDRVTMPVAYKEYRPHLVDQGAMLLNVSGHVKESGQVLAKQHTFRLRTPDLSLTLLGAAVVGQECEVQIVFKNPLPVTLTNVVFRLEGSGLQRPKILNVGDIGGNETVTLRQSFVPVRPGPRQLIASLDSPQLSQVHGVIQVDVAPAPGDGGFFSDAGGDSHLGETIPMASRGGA

[3] = system: TG2 activation in T84 monolayers; experiment: IFN-γ induced TG2 activation in T84 monolayers, 5BP incorporation ELISA; format: cell-based, human; conditions: IFN-γ up to 1000 U/mL, 25 μM ERW1041E
Experimental: FIG. 2. Dose and time dependence of TG2 activation in response to IFN-γ treatments of T84 monolayers measured in a quantitative enzyme linked immunosorbent type assay. T84 monolayers were treated for 1 to 72 hrs at 0-1000 U/mL IFN-γ with or without TG2 inhibition using 25 μM ERW1041E. TG2 activation was quantified by the amount of 5BP crosslinked to native proteins in the T84 cells as measured by tetramethylbenzidine turnover via streptavidin-HRP labeling. 5BP incorporation is dependent on IFN-γ exposure concentration. […] Data reported as mean+/−standard deviation.
FIG. 3. […] (B) Dose and time dependence of TG2 activation in response to IFN-γ treatments of T84 monolayers measured in a quantitative enzyme linked immunosorbent type assay. […] TG2 activation was quantified by the amount of 5BP crosslinked to native proteins in the T84 cells as measured by tetramethylbenzidine turnover via streptavidin-HRP labeling. […]
In addition to increasing the paracellular permeability of antigenic gluten peptides, we sought to determine if IFN-γ could activate TG2 in the extracellular matrix of mature T84 monolayers. […] To quantify the extent to which IFN-γ activates TG2 in the T84 model system, an enzyme linked immunosorbent assay (ELISA) was developed, using streptavidin conjugated to horseradish peroxidase. […]

[4] = system: TG2 activation in WI-38 monolayers; experiment: Thioredoxin-induced TG2 activation in WI-38 monolayers, 5BP incorporation ELISA; format: cell-based, human; conditions: thioredoxin 0-10 μM, 3 hrs, 25 μM ERW1041E
Experimental: (§1) FIG. 7. Dose dependence of TG2 activation in response to recombinant human thioredoxin treatments of T84 and WI-38 monolayers measured in a quantitative enzyme linked immunosorbent type assay. Cellular monolayers were treated for 3 hrs at 0-10 μM thioredoxin with or without TG2 inhibition using 25 μM ERW1041E or with or without using 0-50 μM thioredoxin inhibitor PX-12. TG2 activation was quantified by the amount of 5BP crosslinked to native proteins in the extracellular matrix of cultured monolayers as measured by tetramethylbenzidine turnover via streptavidin-HRP labeling. (A) and (B) Illustrate the dependence of 5BP incorporation on thioredoxin exposure concentration in T84 and WI-38 cells, respectively. […] (C) and (D) Illustrate the dependence of 5BP incorporation on the ability of thioredoxin to activate TG2. TG2 activation was highest for control experiments with 0 μM PX-12. The amount of PX-12 required to reduce the 5BP incorporation in half at saturating concentrations of 3 μM thioredoxin in T84 and WI-38 cultures was 11 μM and 5 μM PX-12, respectively. […] Data reported as mean+/−standard deviation.
(§2) To test whether recombinant human thioredoxin could directly activate TG2 in cell culture, we used T84 and WI-38 monolayers in similar assays as described herein. T84 and WI-38 cells were grown into mature monolayers at which point varying amounts of pre-reduced thioredoxin were added to the culture medium along with 5BP and/or small molecule inhibitors, such as the TG2 inhibitor, ERW1041E, or the thioredoxin inhibitor, PX-12. 5BP incorporated into the extracellular matrix of cultured monolayers via activated TG2 was then quantified.

[5] = system: TG2 activation in T84 monolayers; experiment: Thioredoxin-induced TG2 activation in T84 monolayers, 5BP incorporation ELISA; format: cell-based, human; conditions: thioredoxin 0-10 μM, 3 hrs, 25 μM ERW1041E
Experimental: as §1, §2

| Trx kinh/Ki (human thioredoxin) | Trx/DTT (human thioredoxin) | kinh/Ki TG2 (human TG2) | Structure (SMILES) | DTT k [1] | further results |
| --- | --- | --- | --- | --- | --- |
| 250 M⁻¹ s⁻¹ | 88 | – | CCC(C)SSc1nc2cc(Cl)ccc2s1 (stereo not shown) [compound 15] | 2.83 M⁻¹ s⁻¹ | – |
| 6330 M⁻¹ s⁻¹ | 83 | – | c1ccc2[nH]c(SSC3CCCCC3)nc2c1 [compound 7] | 76.7 M⁻¹ s⁻¹ | – |
| 5500 M⁻¹ s⁻¹ | 72 | – | CC(C)SSc1nc2ccccc2[nH]1 [compound 8] | 76.7 M⁻¹ s⁻¹ | – |
| 3170 M⁻¹ s⁻¹ | 85 | – | CCC(C)SSc1nc2ccncc2[nH]1 (stereo not shown) [compound 10] | 36.7 M⁻¹ s⁻¹ | – |
| 833 M⁻¹ s⁻¹ | 68 | – | CCC(C)SSc1nccs1 (stereo not shown) [compound 14] | 12.3 M⁻¹ s⁻¹ | – |
| – | – | 208.52 M⁻¹ s⁻¹ | O=C(NC[C@@H]1CC(Br)=NO1)[C@@H]1C[C@@H](O)CN1C(=O)OCc1cnc2ccccc2c1 [compound 20] | – | kinh/Ki TG1 [2]: 73.12 M⁻¹ s⁻¹ |
| inactive | – | – | CCC(C)SSc1ccccn1 (stereo not shown) [compound 13] | 0.617 M⁻¹ s⁻¹ | – |
| – | – | – | CC(C)(C)SSc1nc2ccccc2[nH]1 [compound 6] | ~0.467 M⁻¹ s⁻¹ | – |
| 14500 M⁻¹ s⁻¹ | 362 | – | CCC(C)SSc1nc2cc([N+](=O)[O-])ccc2[nH]1 (stereo not shown) [compound 9] | 40 M⁻¹ s⁻¹ | – |
| 40000 M⁻¹ s⁻¹ | 392 | – | CCC(C)SSc1nc2ccccc2o1 (stereo not shown) [compound 12] | 102 M⁻¹ s⁻¹ | – |
| – | – | 130 M⁻¹ s⁻¹ | O=C(NC[C@@H]1CC(Br)=NO1)[C@@H]1Cc2ccccc2CN1C(=O)OCc1cnc2ccccc2c1 [compound 24] | – | – |
| 3170 M⁻¹ s⁻¹ | 39 | – | CCC(C)SSc1nc2ccccc2[nH]1 (stereo not shown) [compound 3] | 80 M⁻¹ s⁻¹ | – |
| – | – | – | CCSSc1nc2ccccc2[nH]1 [compound 4] | 900 M⁻¹ s⁻¹ | – |
| – | – | 138.3 M⁻¹ s⁻¹ | O=C(NC[C@@H]1CC(Br)=NO1)[C@@H]1CCCCN1C(=O)OCc1cnc2ccccc2c1 [compound 26] | – | kinh/Ki TG1 [2]: 384.87 M⁻¹ s⁻¹ |
| – | – | 283.15 M⁻¹ s⁻¹ | O=C(NC[C@@H]1CC(Br)=NO1)[C@@H]1CCCN1C(=O)OCc1cnc2ccccc2c1 [compound 2] | – | TG2 activation (5BP incorporation) [3]: completely blocked 5BP incorporation; also recorded: reduced to basal levels; TG2 activation (5BP incorporation) in response to thioredoxin [4]: completely negates; also recorded: reduced to basal levels; TG2 activation (5BP incorporation) in response to thioredoxin [5]: completely negates; also recorded: reduced to basal levels; kinh/Ki TG1 [2]: 220.37 M⁻¹ s⁻¹ |
| – | – | 128.5 M⁻¹ s⁻¹ | O=C(NC[C@@H]1CC(Br)=NO1)[C@@H]1C[C@@H](OCc2ccccc2)CN1C(=O)OCc1cnc2ccccc2c1 [compound 22] | – | – |
| 5830 M⁻¹ s⁻¹ | 175 | – | CCC(C)SSc1nc2cc([N+](=O)[O-])ccc2s1 (stereo not shown) [compound 16] | 33.3 M⁻¹ s⁻¹ | – |
| – | – | 142 M⁻¹ s⁻¹ | C#CCO[C@@H]1C[C@@H](C(=O)NC[C@@H]2CC(Br)=NO2)N(C(=O)OCc2cnc3ccccc3c2)C1 [compound 23] | – | kinh/Ki TG1 [2]: 72.33 M⁻¹ s⁻¹ |
| – | – | 223.93 M⁻¹ s⁻¹ | O=C(NC[C@@H]1CC(Br)=NO1)[C@@H]1C[C@H](F)CN1C(=O)OCc1cnc2ccccc2c1 [compound 19] | – | kinh/Ki TG1 [2]: 100.7 M⁻¹ s⁻¹ |
| – | – | 120.8 M⁻¹ s⁻¹ | O=C(NC[C@@H]1CC(Br)=NO1)[C@@H]1C[C@@H](F)CN1C(=O)OCc1cnc2ccccc2c1 [compound 18] | – | kinh/Ki TG1 [2]: 111.6 M⁻¹ s⁻¹ |
| – | – | 346.67 M⁻¹ s⁻¹ | O=C(NC[C@@H]1CC(Br)=NO1)[C@@H]1Cc2c([nH]c3ccccc23)CN1C(=O)OCc1cnc2ccccc2c1 [compound 25] | – | – |
| 817 M⁻¹ s⁻¹ | 82 | – | CCC(C)SSc1nc2cccc(C)c2s1 (stereo not shown) [compound 17] | 10 M⁻¹ s⁻¹ | – |
| 4000 M⁻¹ s⁻¹ | 74 | – | c1ccc2[nH]c(SSC3CCCC3)nc2c1 [compound 5] | 53.3 M⁻¹ s⁻¹ | – |
